In paper PMC7436013, “Design, Synthesis, and Biological Investigation of Novel Classes of 3-Carene-Derived Potent Inhibitors of TDP1” (Molecules, 2020):
Entries after “also recorded” stand apart in the source; their conditions may differ.

Key:
TDP1 [1] = target: T1, TDP1 (Homo sapiens, UniProt Q9NUW8); test: Real-time detection of TDP1 activity with fluorescent oligonucleotide biosensor; assay type: biochemical; conditions: for IC50: real-time fluorescent oligonucleotide biosensor, 1.5 nM TDP1, 50 nM substrate, read-out: IC50, TDP1 inhibition
T1 construct: made in house; host or cells: Escherichia coli
Procedure: The compounds synthesized starting from (+)-3-carene 8 were tested for their TDP1 inhibitory properties by measuring their IC50 values using a real-time fluorescent oligonucleotide biosensor [38].
A fluorophore quencher-coupled oligonucleotide biosensor was used for TDP1 enzyme activity real-time fluorescence detection. […] Recombinant protein TDP1 was expressed in Escherichia coli (pET 16B plasmid containing TDP1 cDNA was provided by Dr. K.W. Caldecott, University of Sussex, United Kingdom) and isolated as described by Lebedeva et al.. The reaction mixture contained TDP1 reaction buffer (50 mM Tris-HCl, 50 mM NaCl, 7 mM β-mercaptoethanol), 50 nM oligonucleotide substrate, varied concentrations of the tested compounds, and 1.5 nM purified TDP1 in a final volume of 200 μL.
The TDP1 reaction mixture was incubated at rt in a POLARstar OPTIMA fluorimeter (BMG LABTECH, GmbH). Fluorescence intensity was measured every 1 min (Ex485/Em520 nm). The efficiency of TDP1 inhibition was evaluated by comparing the rate of increase in the fluorescence of the biosensor in the presence of the compound to that of DMSO (1.5%) control wells. IC50 values were determined using an 11-point concentration–response curve. The data were imported into MARS Data Analysis 2.0 program (BMG LABTECH) and the slope during the linear phase was calculated. The IC50 measurements were carried out in at least three independent experiments.

[2] = tested on: IMR-32 (human neuroblastoma cell line); test: Colorimetric cytotoxicity test, IMR-32; assay type: cell-based; conditions: for dose-dependent action of Tpc in the presence of inhibitor: IMR-32, Figure 4C; for dose-dependent action of inhibitor in the presence of Tpc on cell growth: IMR-32, Tpc 8 nM, Figure 4B
Procedure: (§1) The cytotoxicity of the compounds was examined against human cell lines HEK293FT (human embryonic kidney), WT and TDP1-deficient (TDP1-/-), HCT116 (human colon cancer), IMR-32 (human neuroblastoma cell line), HeLa (cervical cancer), and Krebs-2 carcinoma ascites using MTT and EZ4U colorimetric tests or an xCELLigence DP Real-Time Cell Analyzer (ACEA Biosciences, San Diego, CA, USA) for HEK293FT in cells exposed to the compounds. The cells were grown in DMEM/F12 or IMDM (for IMR-32 and Krebs-2) medium (Gibco), with 1x GlutaMAX (Gibco), 50 IU/mL penicillin, 50 μg/mL streptomycin (MP Biomedicals, Irvine, CA, USA) and in the presence of 10% fetal bovine serum (Biolot). The cells (~20,000 cells per well) were incubated for 24 h at 37 °C in 5% CO2, and then treated with the tested compounds (the volume of the added reagents was 1/100 of the total volume of the culture medium, the amount of DMSO was 1% of the final volume as indicated). Control cells were grown in the presence of 1% DMSO where indicated. After 72 h of cell incubation, the relative amount of living cells was determined using a colorimetric test of the amount of formazan converted from 3-(4,5-dimethylthiazol-2-yl)-2,5-diphenyl-2H-tetrazolium bromide (MTT test) or EZ4U Cell Proliferation and Cytotoxicity Assay (Biomedica, Austria), as per the manufacturer’s protocols. The real-time detection of the living cells was done by an xCELLigence DP Real-Time Cell Analyzer (ACEA Biosciences). The measurements were carried out in three parallel experiments.

[3] = tested on: HCT116 (human colon cancer); test: Colorimetric cytotoxicity test, HCT116; assay type: cell-based; conditions: for intrinsic cytotoxicity: HCT116; for dose-dependent action of inhibitor in the presence of Tpc on cell growth: HCT, Tpc 900 nM, Figure 4B
Procedure: as §1

HEK293FT WT cells [4] = test: Colorimetric cytotoxicity test (MTT/EZ4U), HEK293FT WT; assay type: cell-based, human; conditions: for effect of TDP1 inhibitor in conjunction with Tpc on cell growth: Tpc 200 nM; for IC50: Homo sapiens, HEK293FT, 72 h, read-out: Tpc IC50, colorimetric test
Procedure: (§2) We analyzed, using a colorimetric test, the relative amount of viable cells after treating HEK293FT WT and TDP1-deficient (TDP1−/−) cells with increasing concentrations of Tpc for 72 h. […] Next, we studied WT and mutant cells’ live activity after Tpc treatment on the xCELLigence System (ACEA Biosciences, USA) by the impedance-based assay. HEK293FT TDP1−/− cells were more sensitive to Tpc (Figure 2B). After Tpc administration to the cells, an […] of the slope was seen, characterizing the velocity of the cell growth with Tpc as compared to the control both for WT (red columns) and mutant cells (green columns) (Figure S1, Supplementary Materials). […] The sharper decrease of the slope for the mutant cells than for the WT (compare the histogram for the 0 and 0.05 μM Tpc concentration, ~1.5 times for WT cells (red) and ~6 times for TDP1−/−cells (green)) also characterizes the higher sensitivity of the mutant to the TOP1 inhibitor. […] There was a three-fold difference for these IC50 values, which is nearly the same as for the colorimetric assay.
as §1

HEK293FT TDP1−/− cells [5] = test: Colorimetric cytotoxicity test (MTT/EZ4U), HEK293FT TDP1-/-; assay type: cell-based, human; conditions: for effect of TDP1 inhibitor in conjunction with Tpc on cell growth: Tpc 30 nM; for IC50: Homo sapiens, HEK293FT, 72 h, read-out: Tpc IC50, colorimetric test
Procedure: as §2, §1

[6] = tested on: HeLa (cervical carcinoma); test: Colorimetric cytotoxicity test, HeLa; assay type: cell-based, human; conditions: for enhancement of the Tpc cytotoxicity: data not shown
Procedure: as §1

Krebs-2 carcinoma cells = test: Colorimetric cytotoxicity test, Krebs-2; assay type: cell-based
Procedure: as §1, with “The real-time detection of the living cells was done by an xCELLigence DP Real-Time Cell Analyzer (ACEA Biosciences). The measurements were carried out in three parallel experiments.” left out

HEK293FT WT cells [7] = test: Impedance-based real-time assay (xCELLigence), HEK293FT WT; assay type: cell-based, human
Procedure: as §2, with “colorimetric assay. […]” for “colorimetric assay.”

HEK293FT TDP1−/− cells [8] = test: Impedance-based real-time assay (xCELLigence), HEK293FT TDP1-/-; assay type: cell-based, human
Procedure: as §2, with “colorimetric assay. […]” for “colorimetric assay.”

TDP1 [9] = tested on: TDP1; design: method as in PMID 31619021, PMID 30396105, PMID 30142660, PMID 29562592, PMID 27658793; conditions: Figure 1; ref [10]-[13],[16]-[18],[20],[22]; read-out: IC50 of known TDP1 inhibitors; cited from earlier work
[10] = tested on: lung adenocarcinoma cells A549; design: method as in PMID 30523770, doi:10.3390/app9132767; conditions: ref [18],[20]; cited from earlier work
[11] = Homo sapiens, in H2O, read-out: Tpc IC50, impedance-based assay

T1 sequence (Q9NUW8 whole entry): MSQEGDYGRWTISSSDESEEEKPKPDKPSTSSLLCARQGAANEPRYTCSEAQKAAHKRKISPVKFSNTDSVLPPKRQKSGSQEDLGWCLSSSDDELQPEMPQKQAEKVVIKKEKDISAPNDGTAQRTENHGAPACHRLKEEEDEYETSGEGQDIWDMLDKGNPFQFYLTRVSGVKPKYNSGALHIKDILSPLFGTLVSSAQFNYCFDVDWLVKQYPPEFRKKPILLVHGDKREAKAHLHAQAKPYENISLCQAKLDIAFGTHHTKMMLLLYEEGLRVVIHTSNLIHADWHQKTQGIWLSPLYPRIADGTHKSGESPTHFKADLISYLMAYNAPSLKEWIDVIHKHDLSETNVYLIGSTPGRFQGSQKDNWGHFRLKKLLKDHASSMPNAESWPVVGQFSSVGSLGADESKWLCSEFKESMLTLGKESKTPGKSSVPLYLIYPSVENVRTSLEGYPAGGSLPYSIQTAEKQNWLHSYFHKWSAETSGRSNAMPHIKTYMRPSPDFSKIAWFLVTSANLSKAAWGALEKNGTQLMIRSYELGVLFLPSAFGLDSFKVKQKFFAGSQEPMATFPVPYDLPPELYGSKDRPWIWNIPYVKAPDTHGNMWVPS

C/C=C/C1OC(C)(C)[C@@H]2CCC(C)=C[C@H]12 (some centres unmarked) [11c]
activity against TDP1 (in words) (TDP1 [1]): do not exhibit activity
IC50 (TDP1 [1]): > 20000 nM

CC1=C[C@@H]2[C@@H](c3cccs3)OC(C)(C)[C@@H]2CC1 [11d, (1S,3aR,7aS)-3,3,6-trimethyl-1-(thiophen-2-yl)-1,3,3a,4,5,7a-hexahydroisobenzofuran]
IC50 (TDP1 [1]): 4850 ± 1060 nM

CC1=C[C@@H]2[C@@H](c3sccc3C)OC(C)(C)[C@@H]2CC1 [11e, (1S,3aR,7aS)-3,3,6-trimethyl-1-(3-methylthiophen-2-yl)-1,3,3a,4,5,7a-hexahydroisobenzofuran]
IC50 (TDP1 [1]): 3600 ± 1700 nM

CC1=C[C@@H]2[C@@H](c3ccc(C)s3)OC(C)(C)[C@@H]2CC1 [11f, (1S,3aR,7aS)-3,3,6-trimethyl-1-(5-methylthiophen-2-yl)-1,3,3a,4,5,7a-hexahydroisobenzofuran]
IC50 (TDP1 [1]): 4700 ± 2000 nM

CC1=C[C@@H]2[C@@H](c3ccc(Br)s3)OC(C)(C)[C@@H]2CC1 [11h, (1S,3aR,7aS)-3,3,6-trimethyl-1-(5-bromothiophen-2-yl)-1,3,3a,4,5,7a-hexahydroisobenzofuran]
intrinsic cytotoxicity ([2]; IMR-32): low
dose-dependent action of Tpc in the presence of inhibitor [2]: synergistic action
dose-dependent action of inhibitor in the presence of Tpc on cell growth [2]: suppressed cell growth
intrinsic cytotoxicity [3]: low
dose-dependent action of Tpc in the presence of inhibitor ([3]; HCT116, Figure 4C): enhanced Tpc’s potency
dose-dependent action of inhibitor in the presence of Tpc on cell growth [3]: no effect
effect of TDP1 inhibitor in conjunction with Tpc on cell growth (HEK293FT WT cells [4]): cell growth suppression; also recorded: synergistic effect; also recorded: Suppressed cell growth
effect of TDP1 inhibitor in conjunction with Tpc on cell growth (HEK293FT TDP1−/− cells [5]): not found; also recorded: no effect
IC50 (TDP1 [1]): 750 ± 70 nM
intrinsic cytotoxicity [6]: low
enhancement of the Tpc cytotoxicity [6]: no enhancement
intrinsic cytotoxicity (Krebs-2 carcinoma cells): low

CC1=C[C@@H]2[C@@H](c3ccsc3)OC(C)(C)[C@@H]2CC1 [11k, (1S(R),3aR,7aS)-3,3,6-trimethyl-1-(thiophen-3-yl)-1,3,3a,4,5,7a-hexahydroisobenzofuran]
IC50 (TDP1 [1]): 1600 ± 560 nM

COc1cc(C2OC(C)(C)C3CC=C(C)C2C3)ccc1O (centres unmarked) [12a]
activity against TDP1 (in words) (TDP1 [1]): do not exhibit activity
IC50 (TDP1 [1]): > 20000 nM

CC1=CC[C@@H]2C[C@H]1[C@H](c1cccs1)OC2(C)C [12d, (1R,4R,5R)-2,2,6-trimethyl-4-(thiophen-2-yl)-3-oxabicyclo[3.3.1]non-6-ene]
IC50 (TDP1 [1]): 3350 ± 1060 nM

CC1=CC[C@@H]2C[C@H]1[C@H](c1sccc1C)OC2(C)C [12e, (1R,4R,5R)-2,2,6-trimethyl-4-(3-methylthiophen-2-yl)-3-oxabicyclo[3.3.1]non-6-ene]
IC50 (TDP1 [1]): 2250 ± 630 nM

CC1=CC[C@@H]2C[C@H]1[C@H](c1cc(Br)cs1)OC2(C)C [12g, (1R,4R,5R)-2,2,6-trimethyl-4-(4-bromothiophen-2-yl)-3-oxabicyclo[3.3.1]non-6-ene]
IC50 (TDP1 [1]): 650 ± 220 nM

CC1=CC[C@@H]2C[C@H]1[C@H](c1ccc(Br)s1)OC2(C)C [12h, (1R,4R,5R)-2,2,6-trimethyl-4-(5-bromothiophen-2-yl)-3-oxabicyclo[3.3.1]non-6-ene]
IC50 (TDP1 [1]): 1750 ± 780 nM

CC1=CC[C@@H]2C[C@H]1[C@H](c1ccc([N+](=O)[O-])o1)OC2(C)C [12j, (1R,4R,5R)-2,2,6-trimethyl-4-(5-nitrofuran-2-yl)-3-oxabicyclo[3.3.1]non-6-ene]
activity against TDP1 (in words) (TDP1 [1]): did not exhibit high activity
IC50 (TDP1 [1]): 28000 ± 10000 nM

CC1=CC[C@@H]2C[C@H]1[C@H](c1ccsc1)OC2(C)C [12k, (1R,4R,5R)-2,2,6-trimethyl-4-(thiophen-3-yl)-3-oxabicyclo[3.3.1]non-6-ene]
intrinsic cytotoxicity ([2]; IMR-32): low
dose-dependent action of Tpc in the presence of inhibitor [2]: synergistic action
dose-dependent action of inhibitor in the presence of Tpc on cell growth [2]: suppressed cell growth
intrinsic cytotoxicity [3]: low
dose-dependent action of inhibitor in the presence of Tpc on cell growth [3]: no effect
effect of TDP1 inhibitor in conjunction with Tpc on cell growth (HEK293FT WT cells [4]): cell growth suppression; also recorded: synergistic effect; also recorded: Suppressed cell growth
effect of TDP1 inhibitor in conjunction with Tpc on cell growth (HEK293FT TDP1−/− cells [5]): not found; also recorded: no effect
IC50 (TDP1 [1]): 1200 ± 140 nM
intrinsic cytotoxicity [6]: low
enhancement of the Tpc cytotoxicity [6]: no enhancement
intrinsic cytotoxicity (Krebs-2 carcinoma cells): low

CC[C@@]1(O)C(=O)OCc2c1cc1n(c2=O)Cc2cc3c(CN(C)C)c(O)ccc3nc2-1 [Tpc, topotecan, reference compound]
IC50 ([2]; Homo sapiens, IMR-32, read-out: Tpc IC50 (concentration close to IC50)): ~8 nM
IC50 ([3]; Homo sapiens, HCT-116, read-out: Tpc IC50 (concentration close to IC50)): ~900 nM
IC50 (HEK293FT WT cells [7]; [11]): 60 nM
decrease of the slope (velocity of cell growth), 0 vs 0.05 μM Tpc (HEK293FT WT cells [7]; ~70 h after Tpc treatment): ~ 1.5 times
IC50 (HEK293FT WT cells [4]; in DMSO): 200 nM
IC50 (HEK293FT WT cells [4]; in H2O): 250 nM
IC50 (HEK293FT TDP1−/− cells [5]; in DMSO): 30 nM
IC50 (HEK293FT TDP1−/− cells [5]; in H2O): 150 nM
IC50 (HEK293FT TDP1−/− cells [8]; [11]): 20 nM
decrease of the slope (velocity of cell growth), 0 vs 0.05 μM Tpc (HEK293FT TDP1−/− cells [8]; ~70 h after Tpc treatment): ~ 6 times

CC(=O)C[C@H]1CC2C(CCC3C[C@H](OC(C)=O)CC[C@@]32C)C2CC[C@H]([C@H](C)CCC(=O)NC34CC5CC(CC(C5)C3)C4)[C@]21C (some centres unmarked) [compound 2]
IC50 (TDP1 [9]): 470 nM

C[C@@H]1CC[C@@H]2[C@@H](C1)O[C@@H](c1ccc(NC(=O)C34CC5CC(CC(C5)C3)C4)s1)C[C@]2(C)O [compound 3]
IC50 (TDP1 [9]): 1200 nM

CC(C)CCCC(C)CCOC(=O)C12CC3CC(CC(C3)C1)C2 (centres unmarked) [compound 6]
synergism in combination with Tpc [10]: strong synergism
IC50 (TDP1 [9]): 920 nM

CC(C)CCCC(C)CCNC(=S)C12CC3CC(CC(C3)C1)C2 (centres unmarked) [compound 7]
synergism in combination with Tpc [10]: strong synergism
IC50 (TDP1 [9]): 3300 nM
